Measured values from patent US6660690B2, “Seed treatment with combinations of insecticides” (priority 2000, dated 2003).

Tests used:
corn plants = assay: Vigor rating of corn plants at 12 DAP before infestation (indication of phytotoxicity); format: in vivo; conditions: rating 1=extremely low vigor, 10=highest
Procedure: (§1) A lambda-cyhalothrin seed treatment formulation was prepared by diluting the WARRIOR® T insecticide (Zeneca Ag Products, Wilmington, Del.), which contains 11.4% lambda-cyhalothrin as the active ingredient, into water as a carrier. This formulation was applied for one minute at room temperature to twenty-five grams of Pioneer corn seed (Cultivar PN3394) in a rotostatic seed treater at a rate of 125 g, 250 g or 500 g active ingredient (Al) to 100 kg seed. The treated seeds were allowed to sit uncapped for four to twenty-four hours before planting.
(§2) Treated and untreated seeds (Pioneer hybrid PN3394) were planted in a soil mix consisting of Dupo silt loam, 30% Perlite, 20% coarse sand (WB-10 grade) in six groups of tubs (20 in. L×15 in. W×8 in. D). Twelve seeds were planted per tub and three tubs were planted for each treatment regimen. Soil applications of FORCE® 3GR, which contains 3% tefluthrin granule as the active ingredient, were used for two sets of tubs containing untreated seeds. The FORCE 3GR was applied either in-furrow or incorporated into a 5 inch band on the soil surface at the time of planting. The tubs were overhead irrigated until the plants were infested with black cutworm larvae.
At twelve days after planting (DAP) but before infestation, the overall health of each plant was rated by looking at emergence, height and appearance. This vigor rating gives an indication of any phytotoxicity from the seed or soil treatment. A rating of 1 indicates extremely low vigor while 10 is the highest vigor rating.

black cutworm larvae = assay: Black cutworm feeding damage on corn grown from treated seed or in treated soil (Reference Example 1); format: in vivo; conditions: for Plant Defol. 3 DAI / Plant Defol. 7 DAI / Plant Defol. 10 DAI: rating 1=no damage, 10=complete defoliation
Procedure: as §1, §2
The rate of application for the FORCE 3GR was reported in units of grams of the active ingredient per hectare (g/ha), while the rate of application of the WARRIOR T to the seeds was reported in units of grams of the active ingredient per 100 kilograms of the seeds (g/100 kg). Although the conversion of one of these units to the other will vary somewhat according to the type of seed that is being used, the size and weight of the seed, and the density of planting that is used—among other things—an approximate conversion for corn seed can be carried out as follows. Assuming a seed application rate of lambda cyhalothrin of, for example, 125 g/100 kg of seed and a planting density of 15 lbs seed/ac, about 14.7 acres can be planted with 100 kg of the seed. This is an effective application rate of about 8.5 g of lambda cyhalthrin per acre. At 2.47 ac/ha, the seed treatment level of 125 g/100 kg is approximately equivalent to a surface banding treatment at about 21 g/ha.
The corn plants were infested at 12 DAP, which corresponds to late growth stage V1 by placing two black cutworm larvae at ¾ instar on the soil surface near the base of the plant. Plants were rated 3, 7 and 10 days after infestation (DAI) for the number of cut plants, as well as damage from leaf feeding. The percent stand reduction due to plant cutting was calculated by dividing the number of cut plants into the number of plants present at infestation. The foliar feeding injury was evaluated using a rating scale of 1=no damage and 10=complete defoliation.

Which results are given for Cc1c(F)c(F)c(COC(=O)[C@@H]2[C@H](/C=C(\Cl)C(F)(F)F)C2(C)C)c(F)c1F (racemic) [Tefluthrin, (2,3,5,6-tetrafluoro-4-methylphenyl)-methyl-(1 alpha, 3 alpha)-(Z)-(±)-3-(2-chloro-3,3,3-trifluoro-1-propenyl)-2,2-dimethylcyclopropanecarboxylate]?
Vigor at 12 DAP (corn plants; soil granule (FORCE 3GR) banded 30 g/ha): 8.7; Vigor at 12 DAP (corn plants; soil granule (FORCE 3GR) in-furrow 30 g/ha): 9.0; % Stand Reduct'n 3 DAI (black cutworm larvae; soil granule banded 30 g/ha): 0.0%; Plant Defol. 3 DAI (black cutworm larvae; soil granule banded 30 g/ha): 1.7; % Stand Reduct'n 7 DAI (black cutworm larvae; soil granule banded 30 g/ha): 0.0%; Plant Defol. 7 DAI (black cutworm larvae; soil granule banded 30 g/ha): 1.7; % Stand Reduct'n 10 DAI (black cutworm larvae; soil granule banded 30 g/ha): 0.0%; Plant Defol. 10 DAI (black cutworm larvae; soil granule banded 30 g/ha): 0.3; % Stand Reduct'n 3 DAI (black cutworm larvae; soil granule in-furrow 30 g/ha): 33.9%; Plant Defol. 3 DAI (black cutworm larvae; soil granule in-furrow 30 g/ha): 5.0; % Stand Reduct'n 7 DAI (black cutworm larvae; soil granule in-furrow 30 g/ha): 48.0%; Plant Defol. 7 DAI (black cutworm larvae; soil granule in-furrow 30 g/ha): 6.0; % Stand Reduct'n 10 DAI (black cutworm larvae; soil granule in-furrow 30 g/ha): 48.0%; Plant Defol. 10 DAI (black cutworm larvae; soil granule in-furrow 30 g/ha): 5.3

With CC1(C)[C@H](C(=O)O[C@H](C#N)c2cccc(Oc3ccccc3)c2)[C@@H]1/C=C(\Cl)C(F)(F)F [λ-cyhalothrin, [1 alpha (s), 3 alpha(z)]-cyano(3-phenoxyphenyl) methyl-3-(2-chloro-3,3,3-trifluoro-1-propenyl)-2,2-dimethylcyclopropane carboxylate] as the molecule, how does the “Vigor at 12 DAP” value (corn plants; seed treatment 125 g/100 kg) read?
Its value is 9.0.

And the “Vigor at 12 DAP” value (corn plants; seed treatment 250 g/100 kg)?
Its value is 8.3.

And the “Vigor at 12 DAP” value (corn plants; seed treatment 500 g/100 kg)?
Its value is 8.3.

And the “% Stand Reduct'n 3 DAI” value (black cutworm larvae; seed treatment 125 g/100 kg)?
The value was 13.9%.

What about the “Plant Defol. 3 DAI” value (black cutworm larvae; seed treatment 125 g/100 kg) of the same molecule?
Its value is 4.3.

What about the “% Stand Reduct'n 7 DAI” value (black cutworm larvae; seed treatment 125 g/100 kg) of the same molecule?
The value was 16.7%.

And the “Plant Defol. 7 DAI” value (black cutworm larvae; seed treatment 125 g/100 kg)?
The value was 5.0.

What about the “% Stand Reduct'n 10 DAI” value (black cutworm larvae; seed treatment 125 g/100 kg) of the same molecule?
Its value is 19.4%.

And the “Plant Defol. 10 DAI” value (black cutworm larvae; seed treatment 125 g/100 kg)?
Its value is 3.3.

And the “% Stand Reduct'n 3 DAI” value (black cutworm larvae; seed treatment 250 g/100 kg)?
Its value is 3.0%.

And the “Plant Defol. 3 DAI” value (black cutworm larvae; seed treatment 250 g/100 kg)?
Its value is 3.7.

What about the “% Stand Reduct'n 7 DAI” value (black cutworm larvae; seed treatment 250 g/100 kg) of the same molecule?
The value was 3.0%.

What about the “% Stand Reduct'n 7 DAI” value (black cutworm larvae; seed treatment 250 g/100 kg, listed as lambda-cyhalothrin) of the same molecule?
Its value is 3%.

And the “Plant Defol. 7 DAI” value (black cutworm larvae; seed treatment 250 g/100 kg)?
Its value is 2.7.

What about the “% Stand Reduct'n 10 DAI” value (black cutworm larvae; seed treatment 250 g/100 kg) of the same molecule?
Its value is 3.0%.

And the “Plant Defol. 10 DAI” value (black cutworm larvae; seed treatment 250 g/100 kg)?
Its value is 1.7.

What about the “% Stand Reduct'n 3 DAI” value (black cutworm larvae; seed treatment 500 g/100 kg) of the same molecule?
The value was 0.0%.

What about the “Plant Defol. 3 DAI” value (black cutworm larvae; seed treatment 500 g/100 kg) of the same molecule?
Its value is 2.0.

And the “% Stand Reduct'n 7 DAI” value (black cutworm larvae; seed treatment 500 g/100 kg)?
Its value is 0.0%.

What about the “% Stand Reduct'n 7 DAI” value (black cutworm larvae; seed treatment 500 g/100 kg, listed as lambda-cyhalothrin) of the same molecule?
The value was 0%.

And the “Plant Defol. 7 DAI” value (black cutworm larvae; seed treatment 500 g/100 kg)?
Its value is 2.3.

What about the “% Stand Reduct'n 10 DAI” value (black cutworm larvae; seed treatment 500 g/100 kg) of the same molecule?
The value was 0.0%.

And the “Plant Defol. 10 DAI” value (black cutworm larvae; seed treatment 500 g/100 kg)?
Its value is 1.0.
